# Experimental data from paper PMC8074287, “Analgesic and Anticancer Activity of Benzoxazole Clubbed 2-Pyrrolidinones as Novel Inhibitors of Monoacylglycerol Lipase” (Molecules, 2021).
# Assays:
# Experiment in all cases: NCI60 single-dose SRB assay
# Type in all cases: cell-based, human
# OVCAR-4 = settings: OVCAR-4, Ovarian Cancer, 10 μM
# Procedure: (§1) Compounds 19 and 20 were supplied to National Cancer Institute (USA), for sulforhodamine B (SRB) assay and anticancer screening. Single-dose (10 µM) assay results for compounds 19 and 20 were provided as a mean of percent growth (% G) and growth inhibition (% GI) against 60 cell lines of nine types of cancers and are tabulated in Table 4. […] Both the compounds 19 and 20 were also found active on UO-31 renal cancer cell line with % GI of 21.18 and 29.95, respectively.
# (§2) Compounds 19 and 20 were supplied to National Cancer Institute (Bethesda, Maryland, USA), for in vitro sulforhodamine B (SRB) assay, anticancer screening on 60 cell lines of cancers of leukemia, melanoma, and tumors of the kidney, brain, breast, lung, colon, ovary, and prostate, as per their standard protocol. One dose anticancer results (NCI, USA) of compounds 19 and 20 are provided in the Supplementary Materials.
# UACC-62 = settings: UACC-62, Melanoma, 10 μM
# Procedure: as §1, §2
# HT29 = settings: HT29, Colon Cancer, 10 μM
# Procedure: as §1, §2
# SF-268 = settings: SF-268, CNS Cancer, 10 μM
# Procedure: as §1, §2
# HCC-2998 = settings: HCC-2998, Colon Cancer, 10 μM
# Procedure: as §1, §2
# K-562 = settings: K-562, Leukemia, 10 μM
# Procedure: as §1, §2
# SW-620 = settings: SW-620, Colon Cancer, 10 μM
# Procedure: as §1, §2
# COLO 205 = settings: COLO 205, Colon Cancer, 10 μM
# Procedure: as §1, §2
# SNB-75 = settings: SNB-75, CNS Cancer, 10 μM
# Procedure: as §1, §2
# MCF7 = settings: MCF7, Breast Cancer, 10 μM
# Procedure: as §1, §2
# HCT-15 = settings: HCT-15, Colon Cancer, 10 μM
# Procedure: as §1, §2
# KM12 = settings: KM12, Colon Cancer, 10 μM
# Procedure: as §1, §2
# UACC-257 = settings: UACC-257, Melanoma, 10 μM
# Procedure: as §1, §2
# SK-MEL-5 = settings: SK-MEL-5, Melanoma, 10 μM
# Procedure: as §1, §2
# SF-539 = settings: SF-539, CNS Cancer, 10 μM
# Procedure: as §1, §2
# MOLT-4 = settings: MOLT-4, Leukemia, 10 μM
# Procedure: as §1, §2
# M14 = settings: M14, Melanoma, 10 μM
# Procedure: as §1, §2
# HOP-62 = settings: HOP-62, Non-Small Cell Lung Cancer, 10 μM
# Procedure: as §1, §2
# NCI-H322M = settings: Non-Small Cell Lung Cancer, 10 μM
# Procedure: as §1, §2
# MDA-MB-435 = settings: MDA-MB-435, Melanoma, 10 μM
# Procedure: as §1, §2
# OVCAR-5 = settings: OVCAR-5, Ovarian Cancer, 10 μM
# Procedure: as §1, §2
# LOX IMVI = settings: Melanoma, 10 μM
# Procedure: as §1, §2
# IGROV1 = settings: IGROV1, Ovarian Cancer, 10 μM
# Procedure: as §1, §2
# NCI/ADR-RES = settings: Ovarian Cancer, 10 μM
# Procedure: as §1, §2
# HCT-116 = settings: HCT-116, Colon Cancer, 10 μM
# Procedure: as §1, §2
# RPMI-8226 = settings: RPMI-8226, Leukemia, 10 μM
# Procedure: as §1, §2
# SN12C = settings: Renal Cancer, 10 μM
# Procedure: as §1, §2
# MDA-MB-468 = settings: MDA-MB-468, Breast Cancer, 10 μM
# Procedure: as §1, §2
# SK-MEL-2 = settings: SK-MEL-2, Melanoma, 10 μM
# Procedure: as §1, §2
# PC-3 = settings: PC-3, Prostate Cancer, 10 μM
# Procedure: as §1, §2
# SF-295 = settings: SF-295, CNS Cancer, 10 μM
# Procedure: as §1, §2
smiles,measurement,setting,value
"O=C1CC(c2nc3ccccc3o2)CN1c1ccc([N+](=O)[O-])cc1 (centres unmarked) [Compound 19, 4-(Benzo[d]oxazol-2-yl)-1-(4-nitrophenyl)pyrrolidin-2-one]",% G,OVCAR-4,106.27%
same,% GI,OVCAR-4,−6.27%
same,% G,UACC-62,97.59%
same,% GI,UACC-62,2.41%
same,% G,HT29,99.25%
same,% GI,HT29,0.75%
same,% G,SF-268,91.85%
same,% GI,SF-268,8.15%
same,% G,HCC-2998,102.05%
same,% GI,HCC-2998,−2.05%
same,% G,K-562,98.41%
same,% GI,K-562,1.59%
same,% G,SW-620,102.52%
same,% GI,SW-620,−2.52%
same,% G,COLO 205,103.79%
same,% GI,COLO 205,−3.79%
same,% G,SNB-75,64.51%
same,% GI,SNB-75,35.49%
same,% G,MCF7,99.19%
same,% GI,MCF7,0.81%
same,% G,HCT-15,98.10%
same,% GI,HCT-15,1.9%
same,% G,KM12,105.43%
same,% GI,KM12,−5.43%
same,% G,UACC-257,106.92%
same,% GI,UACC-257,−6.92%
same,% G,SK-MEL-5,98.72%
same,% GI,SK-MEL-5,1.28%
same,% G,SF-539,95.59%
same,% GI,SF-539,4.41%
same,% G,MOLT-4,93.64%
same,% GI,MOLT-4,6.36%
same,% G,M14,101.37%
same,% GI,M14,−1.37%
same,% G,HOP-62,85.04%
same,% GI,HOP-62,14.96%
same,% G,NCI-H322M,94.18%
same,% GI,NCI-H322M,5.82%
same,% G,MDA-MB-435,95.05%
same,% GI,MDA-MB-435,4.95%
same,% G,OVCAR-5,98.30%
same,% GI,OVCAR-5,1.70%
same,% G,LOX IMVI,89.06%
same,% GI,LOX IMVI,10.94%
same,% G,IGROV1,104.14%
same,% GI,IGROV1,−4.14%
same,% G,NCI/ADR-RES,98.37%
same,% GI,NCI/ADR-RES,1.63%
same,% G,HCT-116,102.14%
same,% GI,HCT-116,−2.14%
same,% G,RPMI-8226,101.28%
same,% GI,RPMI-8226,−1.28%
same,% G,SN12C,97.21%
same,% GI,SN12C,2.79%
same,% G,MDA-MB-468,98.03%
same,% GI,MDA-MB-468,1.97%
same,% G,SK-MEL-2,102.31%
same,% GI,SK-MEL-2,−2.31%
same,% G,PC-3,91.14%
same,% GI,PC-3,8.86%
same,% G,SF-295,98.21%
same,% GI,SF-295,1.79%
"NS(=O)(=O)c1ccc(N2CC(c3nc4ccccc4o3)CC2=O)cc1 (centres unmarked) [Compound 20, 4-(4-(Benzo[d]oxazol-2-yl)-2-oxopyrrolidin-1-yl)benzenesulfonamide]",% G,OVCAR-4,99.47%
same,% GI,OVCAR-4,0.53%
same,% G,UACC-62,92.78%
same,% GI,UACC-62,7.22%
same,% G,HT29,103.23%
same,% GI,HT29,−3.23%
same,% G,SF-268,87.43%
same,% GI,SF-268,12.57%
same,% G,HCC-2998,100.24%
same,% GI,HCC-2998,−0.24%
same,% G,K-562,98.83%
same,% GI,K-562,1.17%
same,% G,SW-620,102.95%
same,% GI,SW-620,−2.95%
same,% G,COLO 205,104.05%
same,% GI,COLO 205,−4.05%
same,% G,SNB-75,68.12%
same,% GI,SNB-75,31.88%
same,% G,MCF7,92.32%
same,% GI,MCF7,7.68%
same,% G,HCT-15,101.16%
same,% GI,HCT-15,−1.16%
same,% G,KM12,101.16%
same,% GI,KM12,−1.16%
same,% G,UACC-257,110.78%
same,% GI,UACC-257,−10.78%
same,% G,SK-MEL-5,98.82%
same,% G,SF-539,87.58%
same,% GI,SF-539,12.42%
same,% G,MOLT-4,92.47%
same,% GI,MOLT-4,7.53%
same,% G,M14,98.58%
same,% GI,M14,1.42%
same,% G,HOP-62,81.97%
same,% GI,HOP-62,18.03%
same,% G,NCI-H322M,99.10%
same,% GI,NCI-H322M,0.90%
same,% G,MDA-MB-435,100.55%
same,% GI,MDA-MB-435,−0.55%
same,% G,OVCAR-5,92.08%
same,% GI,OVCAR-5,7.92%
same,% G,LOX IMVI,92.99%
same,% GI,LOX IMVI,7.01%
same,% G,IGROV1,101.63%
same,% GI,IGROV1,−1.63%
same,% G,NCI/ADR-RES,101.45%
same,% GI,NCI/ADR-RES,−1.45%
same,% G,HCT-116,95.78%
same,% G,RPMI-8226,103.53%
same,% GI,RPMI-8226,−3.53%
same,% G,SN12C,95.50%
same,% GI,SN12C,4.50%
same,% G,MDA-MB-468,100.34%
same,% GI,MDA-MB-468,−0.34%
same,% G,SK-MEL-2,111.54%
same,% GI,SK-MEL-2,−11.54%
same,% G,PC-3,88.11%
same,% GI,PC-3,11.89%
same,% G,SF-295,93.71%
same,% GI,SF-295,6.29%
